# Laboratory results from patent US20230340012A1, “NATURAL AND SYNTHETIC COMPOUNDS FOR TREATING CANCER AND OTHER DISEASES” (PACIFIC ARROW LIMITED, priority 2009, published 2023).
# Tested on: cancer cells
# Experiment: MTT cytotoxic assay of esterification products (Cytotoxicity activity)
# Format: cell-based, human
# In short: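 Cytotoxicity was read by MTT (Carmichael method, modified), with cells seeded 24 h ahead of treatment. Sixteen human cancer lines spanning bone, lung, bladder, ovary, colon, pancreas, prostate, skin, mouth, kidney, breast, liver, brain, leukemia and cervix were used. Test samples were acyl chloride esterification products of triterpenes, as mixtures or HPLC-purified compounds.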
# [1] = E4A esterified with 2-propenoyl chloride (Ppe = Propenoyl), compounds isolated with HPLC
# [2] = E4A esterified with Propionyl chloride (Ppi = Propionyl), compounds isolated with HPLC
# [3] = E4A esterified with benzoyl chloride (Ben = benzoyl), compounds isolated with HPLC
# [4] = esterification products of core compound E4A with (2E)-2-pentenoyl chloride (2pe = 2-pentenoyl)
# [5] = esterification products of core compound E4A with Butyryl chloride (But = Butyryl)
# [6] = esterification products of core compound E4A with Decanoyl chloride (Dec = Decanoyl)
# [7] = esterification products of core compound E4A with Isobutyryl chloride (Iso = Isobutyryl)
# [8] = esterification products of core compound E4A with Myristoyl chloride (Myr = Myristoyl)
# [9] = esterification products of core compound E4A with Octanoyl chloride (Oct = Octanoyl)
# [10] = esterification products isolated with HPLC, graded strong / moderate / weak
SMILES,Cytotoxicity activity [1],Cytotoxicity activity [2],Cytotoxicity activity [3],Cytotoxicity activity [4],Cytotoxicity activity [5],Cytotoxicity activity [6],Cytotoxicity activity [7],Cytotoxicity activity [8],Cytotoxicity activity [9],Cytotoxicity activity (esterification products of E4A—Tig—N with senecioyl chloride),Cytotoxicity activity [10]
CC1(C)CC2C3=CCC4C5(C)CCC(O)C(C)(CO)C5CCC4(C)C3(C)CC(O)C2(CO)C(OC(=O)c2ccccc2)C1OC(=O)c1ccccc1 (centres unmarked) [Compound K24],moderate,moderate,moderate,moderate,moderate,moderate,moderate,moderate,moderate,,
CC1(C)CC2C3=CCC4C5(C)CCC(O)C(C)(CO)C5CCC4(C)C3(C)CC(O)C2(COC(=O)c2ccccc2)C(O)C1OC(=O)c1ccccc1 (centres unmarked) [Compound K25],moderate,moderate,moderate,moderate,moderate,moderate,moderate,moderate,moderate,,
CC1(C)CC2C3=CCC4C5(C)CCC(O)C(C)(CO)C5CCC4(C)C3(C)CC(O)C2(COC(=O)c2ccccc2)C(OC(=O)c2ccccc2)C1O (centres unmarked) [Compound K26],moderate,moderate,moderate,moderate,moderate,moderate,moderate,moderate,moderate,,
CC1(C)CC2C3=CCC4C5(C)CCC(OC(=O)c6ccccc6)C(C)(CO)C5CCC4(C)C3(C)CC(O)C2(COC(=O)c2ccccc2)C(O)C1O (centres unmarked) [Compound K27],moderate,moderate,moderate,moderate,moderate,moderate,moderate,moderate,moderate,,
CC1(C)CC2C3=CCC4C5(C)CCC(O)C(C)(CO)C5CCC4(C)C3(C)CC(OC(=O)c3ccccc3)C2(COC(=O)c2ccccc2)C(O)C1O (centres unmarked) [Compound K28],moderate,moderate,moderate,moderate,moderate,moderate,moderate,moderate,moderate,,
CC1(C)CC2C3=CCC4C5(C)CCC(O)C(C)(COC(=O)c6ccccc6)C5CCC4(C)C3(C)CC(O)C2(CO)C(O)C1OC(=O)c1ccccc1 (centres unmarked) [Compound K29],moderate,moderate,moderate,moderate,moderate,moderate,moderate,moderate,moderate,,
CC1(C)CC2C3=CCC4C5(C)CCC(O)C(C)(COC(=O)c6ccccc6)C5CCC4(C)C3(C)CC(O)C2(CO)C(OC(=O)c2ccccc2)C1O (centres unmarked) [Compound K30],moderate,moderate,moderate,moderate,moderate,moderate,moderate,moderate,moderate,,
CC1(C)CC2C3=CCC4C5(C)CCC(OC(=O)c6ccccc6)C(C)(COC(=O)c6ccccc6)C5CCC4(C)C3(C)CC(O)C2(CO)C(O)C1O (centres unmarked) [Compound K31],moderate,moderate,moderate,moderate,moderate,moderate,moderate,moderate,moderate,,
CC1(C)CC2C3=CCC4C5(C)CCC(O)C(C)(COC(=O)c6ccccc6)C5CCC4(C)C3(C)CC(OC(=O)c3ccccc3)C2(CO)C(O)C1O (centres unmarked) [Compound K32],moderate,moderate,moderate,moderate,moderate,moderate,moderate,moderate,moderate,,
C/C=C(\C)C(=O)OC[C@]1(C)C2CC[C@]3(C)C(CC=C4C5CC(C)(C)[C@@H](O)[C@H](O)[C@]5(COC(=O)C=C(C)C)[C@H](O)C[C@]43C)[C@@]2(C)CC[C@@H]1O (stereo partly drawn) [E4A-Tig-Sen-1],,,,,,,,,,strong,
CC=C(C)C(=O)OCC1(C)C(O)CCC2(C)C1CCC1(C)C2CC=C2C3CC(C)(C)C(O)C(O)C3(COC(C)=O)C(O)CC21C (centres unmarked) [Tig—Acy—1],,,,,,,,,,,strong
CC=C(C)C(=O)OCC1(C)C(O)CCC2(C)C1CCC1(C)C2CC=C2C3CC(C)(C)C(OC(C)=O)C(O)C3(COC(C)=O)C(O)CC21C (centres unmarked) [Tig—Acy—2],,,,,,,,,,,moderate
CC=C(C)C(=O)OCC1(C)C(O)CCC2(C)C1CCC1(C)C2CC=C2C3CC(C)(C)C(O)C(OC(C)=O)C3(COC(C)=O)C(O)CC21C (centres unmarked) [Tig—Acy—3],,,,,,,,,,,moderate
CC=C(C)C(=O)OCC1(C)C(OC(C)=O)CCC2(C)C1CCC1(C)C2CC=C2C3CC(C)(C)C(O)C(O)C3(COC(C)=O)C(O)CC21C (centres unmarked) [Tig—Acy—4],,,,,,,,,,,moderate
CC=C(C)C(=O)OCC1(C)C(O)CCC2(C)C1CCC1(C)C2CC=C2C3CC(C)(C)C(OC(C)=O)C(O)C3(CO)C(O)CC21C (centres unmarked) [Tig—Acy—5],,,,,,,,,,,moderate
CC=C(C)C(=O)OCC1(C)C(O)CCC2(C)C1CCC1(C)C2CC=C2C3CC(C)(C)C(O)C(OC(C)=O)C3(CO)C(O)CC21C (centres unmarked) [Tig—Acy—6],,,,,,,,,,,moderate
CC=C(C)C(=O)OCC1(C)C(O)CCC2(C)C1CCC1(C)C2CC=C2C3CC(C)(C)C(O)C(O)C3(COC(=O)C(C)=CC)C(O)CC21C (centres unmarked) [Tig—Ang—1],,,,,,,,,,,strong
CC=C(C)C(=O)OCC1(C)C(O)CCC2(C)C1CCC1(C)C2CC=C2C3CC(C)(C)C(OC(=O)C(C)=CC)C(O)C3(COC(=O)C(C)=CC)C(O)CC21C (centres unmarked) [Tig—Ang—2],,,,,,,,,,,moderate
CC=C(C)C(=O)OCC1(C)C(O)CCC2(C)C1CCC1(C)C2CC=C2C3CC(C)(C)C(O)C(OC(=O)C(C)=CC)C3(COC(=O)C(C)=CC)C(O)CC21C (centres unmarked) [Tig—Ang—3],,,,,,,,,,,moderate
CC=C(C)C(=O)OCC1(C)C(OC(=O)C(C)=CC)CCC2(C)C1CCC1(C)C2CC=C2C3CC(C)(C)C(O)C(O)C3(COC(=O)C(C)=CC)C(O)CC21C (centres unmarked) [Tig—Ang—4],,,,,,,,,,,moderate
CC=C(C)C(=O)OCC1(C)C(O)CCC2(C)C1CCC1(C)C2CC=C2C3CC(C)(C)C(OC(=O)C(C)=CC)C(O)C3(CO)C(O)CC21C (centres unmarked) [Tig—Ang—5],,,,,,,,,,,moderate
CC=C(C)C(=O)OCC1(C)C(O)CCC2(C)C1CCC1(C)C2CC=C2C3CC(C)(C)C(O)C(OC(=O)C(C)=CC)C3(CO)C(O)CC21C (centres unmarked) [Tig—Ang—6],,,,,,,,,,,moderate
CC=C(C)C(=O)OCC1(C)C(O)CCC2(C)C1CCC1(C)C2CC=C2C3CC(C)(C)C(O)C(O)C3(COC(=O)C=Cc3ccccc3)C(O)CC21C (centres unmarked) [Tig—Cin—1],,,,,,,,,,,strong
